As a reminder, the IC50 is the point on the concentration scale where inhibition reaches its midpoint. As usually defined, the MIC is the lowest concentration that inhibits growth of the organism.

This is an account of results in patent US10800791B2, “Triazole ACC inhibitors and uses thereof” (Gilead Apollo, LLC, priority 2015, dated 2020).

Converted amounts (≈) assume the structure as drawn. A value given as a limit tells only on which side of the number the result lay.

The target of experiment [1] is human (hACC2) (Homo sapiens, UniProt O00763). Kind of experiment: In vitro ACC inhibition assay (ADP-Glo), hACC2. The conditions noted are these: Table 2b, additional results, 5 nM ACC2, 20 μM ATP, 20 μM acetyl-CoA. The experiment is classed as biochemical. The method, then: The detailed procedure is as follows. […] 10 μL ADP glo reagent was added. […] 20 μL kinase detection reagent was added.
Sequence of human (hACC2) (O00763 whole entry): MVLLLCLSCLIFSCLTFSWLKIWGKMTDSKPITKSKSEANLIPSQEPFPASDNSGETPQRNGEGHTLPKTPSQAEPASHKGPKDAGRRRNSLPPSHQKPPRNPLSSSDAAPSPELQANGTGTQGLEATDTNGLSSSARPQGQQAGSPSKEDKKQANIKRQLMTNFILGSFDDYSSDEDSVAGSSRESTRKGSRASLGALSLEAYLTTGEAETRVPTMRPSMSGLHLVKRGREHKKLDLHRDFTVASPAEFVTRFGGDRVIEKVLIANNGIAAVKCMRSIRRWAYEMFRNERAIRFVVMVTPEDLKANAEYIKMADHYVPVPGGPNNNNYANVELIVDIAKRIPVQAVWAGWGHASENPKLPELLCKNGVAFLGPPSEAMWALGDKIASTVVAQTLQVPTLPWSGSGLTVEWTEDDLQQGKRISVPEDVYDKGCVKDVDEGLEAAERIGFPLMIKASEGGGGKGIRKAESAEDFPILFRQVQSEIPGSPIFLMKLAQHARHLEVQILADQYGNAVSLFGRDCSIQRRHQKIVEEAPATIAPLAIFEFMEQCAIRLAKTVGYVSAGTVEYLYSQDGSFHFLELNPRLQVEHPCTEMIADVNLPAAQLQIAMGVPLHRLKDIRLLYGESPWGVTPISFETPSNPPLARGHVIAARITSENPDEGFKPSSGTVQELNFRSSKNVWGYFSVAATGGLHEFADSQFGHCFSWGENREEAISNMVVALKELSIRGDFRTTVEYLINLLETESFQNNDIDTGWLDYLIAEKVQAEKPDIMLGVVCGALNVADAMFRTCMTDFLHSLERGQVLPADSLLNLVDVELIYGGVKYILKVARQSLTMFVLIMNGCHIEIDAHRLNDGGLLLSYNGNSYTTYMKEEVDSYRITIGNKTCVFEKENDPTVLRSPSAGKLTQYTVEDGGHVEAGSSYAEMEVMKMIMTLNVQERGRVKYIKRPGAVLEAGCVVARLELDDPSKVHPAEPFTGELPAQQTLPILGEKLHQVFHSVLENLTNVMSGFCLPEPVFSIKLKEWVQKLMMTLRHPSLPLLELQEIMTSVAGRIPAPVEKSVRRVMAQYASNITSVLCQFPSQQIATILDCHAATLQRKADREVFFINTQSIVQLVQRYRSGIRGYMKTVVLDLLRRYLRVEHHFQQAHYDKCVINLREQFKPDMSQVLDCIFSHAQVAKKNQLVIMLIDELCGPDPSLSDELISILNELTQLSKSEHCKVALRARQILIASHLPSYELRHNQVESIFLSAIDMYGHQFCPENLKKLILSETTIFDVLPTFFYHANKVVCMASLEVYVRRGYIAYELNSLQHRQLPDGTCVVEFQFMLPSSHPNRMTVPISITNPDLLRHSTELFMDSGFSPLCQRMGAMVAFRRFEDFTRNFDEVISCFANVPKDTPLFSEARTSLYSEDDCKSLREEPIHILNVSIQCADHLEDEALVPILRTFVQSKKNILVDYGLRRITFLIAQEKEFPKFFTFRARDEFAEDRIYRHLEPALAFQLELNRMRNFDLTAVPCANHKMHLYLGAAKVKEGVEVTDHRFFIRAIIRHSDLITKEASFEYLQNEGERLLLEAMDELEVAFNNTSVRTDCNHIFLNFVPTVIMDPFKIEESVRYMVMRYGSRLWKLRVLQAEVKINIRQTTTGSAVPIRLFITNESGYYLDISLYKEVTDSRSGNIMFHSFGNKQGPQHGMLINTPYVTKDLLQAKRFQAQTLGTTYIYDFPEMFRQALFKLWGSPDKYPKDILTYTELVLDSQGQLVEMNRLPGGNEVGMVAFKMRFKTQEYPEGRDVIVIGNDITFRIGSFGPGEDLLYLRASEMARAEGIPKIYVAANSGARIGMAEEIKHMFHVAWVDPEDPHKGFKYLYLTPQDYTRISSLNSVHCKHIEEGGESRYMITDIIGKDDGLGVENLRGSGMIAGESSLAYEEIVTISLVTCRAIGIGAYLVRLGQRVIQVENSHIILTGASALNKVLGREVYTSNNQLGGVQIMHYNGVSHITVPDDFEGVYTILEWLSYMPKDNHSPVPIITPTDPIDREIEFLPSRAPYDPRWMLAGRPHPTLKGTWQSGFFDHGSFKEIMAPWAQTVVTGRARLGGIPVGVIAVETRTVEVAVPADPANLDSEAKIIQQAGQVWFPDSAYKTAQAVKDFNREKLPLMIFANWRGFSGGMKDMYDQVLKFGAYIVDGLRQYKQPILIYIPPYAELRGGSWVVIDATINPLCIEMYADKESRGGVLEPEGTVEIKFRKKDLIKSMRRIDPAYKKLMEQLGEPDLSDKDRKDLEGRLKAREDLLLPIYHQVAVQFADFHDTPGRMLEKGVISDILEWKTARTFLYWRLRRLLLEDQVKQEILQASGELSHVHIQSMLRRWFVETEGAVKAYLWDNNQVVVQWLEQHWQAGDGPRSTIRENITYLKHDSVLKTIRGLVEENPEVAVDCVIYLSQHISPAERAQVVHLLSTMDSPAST

In experiment [2] the test system is C. albicans. The experiment is described as follows: Antifungal Activity Assay (broth microtiter MIC), C. albicans. The experiment is classed as cell-based, Candida albicans. The conditions noted are these: Candida albicans, ATCC90028, 48 h, Table 3b (additional results); ATCC 90028; 3 replicates; MIC recorded at 48 h; read-out: MIC, C. albicans ATCC 90028. An outline of the steps:
(§1)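 Endpoint: lowest concentration visibly inhibiting growth relative to control after 48 h. Inoculum of 2.5×10^3 CFU/mL final in RPMI 1640+MOPS, prepared from overnight 35° C agar cultures; test compounds diluted in water to 128 μg/mL before plating.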

Experiment [3] deals with C. krusei. Kind of experiment: Antifungal Activity Assay (broth microtiter MIC), C. krusei. The experiment is classed as cell-based, Candida krusei. The conditions noted are these: Pichia kudriavzevii, ATCC6258, 48 h, Table 3b (additional results); ATCC 6258; 3 replicates; MIC recorded at 48 h; read-out: MIC, C. krusei ATCC 6258. The gist of the method:
as §1

Experiment [4] concerns C. parapsilosis. The experiment is described as follows: Antifungal Activity Assay (broth microtiter MIC), C. parapsilosis. As to conditions: Lodderomyces parapsilosis, ATCC22019, 48 h, Table 3b (additional results); ATCC 22019; 3 replicates; MIC recorded at 48 h; read-out: MIC, C. parapsilosis ATCC 22019. The experiment is classed as cell-based, Candida parapsilosis. The gist of the method:
as §1

The subject of experiment [5] is Botrtyis cinerea (Bc). The experiment is described as follows: Growth inhibition assay of fungal pathogens, Bc. The conditions noted are these: 48 h, Botrtyis cinerea; growth inhibition at 48 hours vs 2% DMSO control; read-out: Concentration at 90% Inhibition Bc. The experiment is classed as cell-based. An outline of the steps:
(§2)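 Percent inhibition derived at 48 hours from OD600 and visual scores versus 2% DMSO control, with media+DMSO blank as background. Spore inocula in 17% V8 medium were sized from 48 h growth curves; compounds tested at final 50/10/2 or 2/0.4/0.08 ppm.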

The test system of experiment [6] is Collectotrichum graminicola (Cg). The experiment is described as follows: Growth inhibition assay of fungal pathogens, Cg. The conditions noted are these: 48 h, Collectotrichum graminicola; growth inhibition at 48 hours vs 2% DMSO control; read-out: Concentration at 90% Inhibition Cg. Type of experiment: cell-based. The gist of the method: as §2
The test system of experiment [7] is Diplodia maydis (Dm). Kind of experiment: Growth inhibition assay of fungal pathogens, Dm. Type of experiment: cell-based. As to conditions: Stenocarpella maydis, 48 h, Diplodia maydis; growth inhibition at 48 hours vs 2% DMSO control; read-out: Concentration at 90% Inhibition Dm. An outline of the steps:
as §2

The subject of experiment [8] is Fusarium moniliforme (Fm). The experiment is described as follows: Growth inhibition assay of fungal pathogens, Fm. Type of experiment: cell-based. The conditions noted are these: Fusarium verticillioides, 48 h, Fusarium moniliforme; growth inhibition at 48 hours vs 2% DMSO control; read-out: Concentration at 90% Inhibition Fm. The gist of the method:
as §2

Experiment [9] deals with Fusarium virguliforme (Fv). Kind of experiment: Growth inhibition assay of fungal pathogens, Fv. The experiment is classed as cell-based. As to conditions: 48 h, growth inhibition at 48 hours vs 2% DMSO control, read-out: Concentration at 90% Inhibition Fv. The gist of the method: as §2
The subject of experiment [10] is Phytophthora capsici (Pc). Kind of experiment: Growth inhibition assay of fungal pathogens, Pc. The experiment is classed as cell-based. The conditions noted are these: 48 h, growth inhibition at 48 hours vs 2% DMSO control, read-out: Concentration at 90% Inhibition Pc. An outline of the steps: as §2
Experiment [11] deals with Rhizoctonia solani (Rs). Kind of experiment: Growth inhibition assay of fungal pathogens, Rs. Type of experiment: cell-based. The conditions noted are these: 48 h, mycelial plugs, growth inhibition at 48 hours vs 2% DMSO control, read-out: Concentration at 90% Inhibition Rs.
Experiment [12] concerns Septoria tritici (St). The experiment is described as follows: Growth inhibition assay of fungal pathogens, St. As to conditions: Zymoseptoria tritici, 48 h, Septoria tritici; growth inhibition at 48 hours vs 2% DMSO control; read-out: Concentration at 90% Inhibition St. The experiment is classed as cell-based. The gist of the method: as §2
Experiment [13] has as its target fungal (fACC2) (UniProt Q00955). As to conditions: read-out: fACC2 (in vitro ACC2 Inhibition Assay, IC50); Table 2b, additional results; ADP-Glo, 5 nM ACC2, 20 μM ATP, 20 μM acetyl-CoA. (ADP-Glo first removes unused ATP, then detects ADP through luciferase.)

Sequence of fungal (fACC2) (Q00955 whole entry): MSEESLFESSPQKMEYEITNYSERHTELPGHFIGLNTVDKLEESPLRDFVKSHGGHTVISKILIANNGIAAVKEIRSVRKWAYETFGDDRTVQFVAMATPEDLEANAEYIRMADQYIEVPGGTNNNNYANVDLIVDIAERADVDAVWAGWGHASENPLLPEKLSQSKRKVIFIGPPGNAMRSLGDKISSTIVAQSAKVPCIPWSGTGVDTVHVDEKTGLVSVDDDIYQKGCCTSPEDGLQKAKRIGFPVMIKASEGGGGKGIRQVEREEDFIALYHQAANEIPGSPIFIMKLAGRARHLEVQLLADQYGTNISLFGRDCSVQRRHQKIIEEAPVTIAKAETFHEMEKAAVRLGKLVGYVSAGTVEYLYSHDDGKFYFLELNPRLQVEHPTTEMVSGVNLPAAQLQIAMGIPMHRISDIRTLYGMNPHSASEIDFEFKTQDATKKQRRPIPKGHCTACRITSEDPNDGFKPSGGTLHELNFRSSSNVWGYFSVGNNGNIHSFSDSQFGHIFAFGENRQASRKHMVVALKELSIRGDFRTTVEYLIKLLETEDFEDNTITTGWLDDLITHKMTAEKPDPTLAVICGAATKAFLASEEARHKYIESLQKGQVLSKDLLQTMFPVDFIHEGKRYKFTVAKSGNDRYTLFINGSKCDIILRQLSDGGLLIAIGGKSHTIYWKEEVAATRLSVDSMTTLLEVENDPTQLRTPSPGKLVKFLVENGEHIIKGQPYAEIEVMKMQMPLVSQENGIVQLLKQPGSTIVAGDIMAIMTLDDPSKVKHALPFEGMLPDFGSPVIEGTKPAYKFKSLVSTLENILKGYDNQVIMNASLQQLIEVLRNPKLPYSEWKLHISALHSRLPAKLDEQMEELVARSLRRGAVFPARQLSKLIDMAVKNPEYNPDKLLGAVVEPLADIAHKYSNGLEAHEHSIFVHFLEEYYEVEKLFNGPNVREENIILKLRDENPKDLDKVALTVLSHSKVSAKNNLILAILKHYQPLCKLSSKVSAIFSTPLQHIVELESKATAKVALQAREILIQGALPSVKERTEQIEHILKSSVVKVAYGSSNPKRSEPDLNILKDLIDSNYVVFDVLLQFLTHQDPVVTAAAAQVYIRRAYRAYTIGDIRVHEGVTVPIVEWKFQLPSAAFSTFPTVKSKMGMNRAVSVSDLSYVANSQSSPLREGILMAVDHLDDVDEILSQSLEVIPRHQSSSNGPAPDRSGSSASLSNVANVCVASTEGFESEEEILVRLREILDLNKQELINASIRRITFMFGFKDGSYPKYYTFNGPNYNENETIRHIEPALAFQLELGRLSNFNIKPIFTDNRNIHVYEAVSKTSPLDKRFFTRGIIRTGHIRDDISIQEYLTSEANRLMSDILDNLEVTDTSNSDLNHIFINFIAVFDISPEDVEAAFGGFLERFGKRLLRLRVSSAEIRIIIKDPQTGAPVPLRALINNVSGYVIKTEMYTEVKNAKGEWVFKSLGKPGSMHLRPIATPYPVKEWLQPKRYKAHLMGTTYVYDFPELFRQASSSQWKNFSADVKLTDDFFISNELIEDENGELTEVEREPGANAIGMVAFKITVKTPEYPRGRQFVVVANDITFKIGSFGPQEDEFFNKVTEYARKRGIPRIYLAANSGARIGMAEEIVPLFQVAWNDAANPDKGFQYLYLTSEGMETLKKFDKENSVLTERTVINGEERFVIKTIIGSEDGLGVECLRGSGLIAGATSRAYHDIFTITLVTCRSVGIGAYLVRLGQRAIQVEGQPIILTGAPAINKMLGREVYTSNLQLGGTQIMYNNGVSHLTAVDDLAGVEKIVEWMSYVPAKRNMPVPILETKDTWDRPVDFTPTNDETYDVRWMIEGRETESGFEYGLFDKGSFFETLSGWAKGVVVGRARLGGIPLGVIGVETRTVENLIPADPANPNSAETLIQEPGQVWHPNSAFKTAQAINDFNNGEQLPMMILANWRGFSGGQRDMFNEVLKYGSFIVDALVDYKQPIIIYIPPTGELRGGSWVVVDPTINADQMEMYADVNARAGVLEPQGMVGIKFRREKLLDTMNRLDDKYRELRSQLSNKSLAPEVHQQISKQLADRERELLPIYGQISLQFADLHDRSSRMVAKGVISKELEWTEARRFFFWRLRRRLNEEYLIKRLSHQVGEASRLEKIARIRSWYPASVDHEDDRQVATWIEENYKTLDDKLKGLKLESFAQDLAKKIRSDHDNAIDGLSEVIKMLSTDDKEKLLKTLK

Regarding `COc1ccc(F)cc1[C@@H](O)Cn1c(=O)n([C@H](C)C(=O)N2CCCC2)c(=O)c2c(C)c(-n3nccn3)sc21` [Compound I-195], the results for the IC50 in [1] and in [13] were 5 to 10 nM and 0.3 to 1 nM, respectively. For the same compound, the MIC in experiment [2], in [3] and in experiment [4] was 1.01 to 2 mg/L (≈ 1.86 to 3.69 µM) each time. The IC90 in experiment [5] was 2 mg/L (≈ 3.69 µM); in experiment [6], 2 mg/L (≈ 3.69 µM); in experiment [7], 10 mg/L (≈ 18.4 µM); in experiment [8] it was 0.4 mg/L (≈ 0.737 µM); in experiment [9], 0.4 mg/L (≈ 0.737 µM); in [10], over 50 mg/L. The IC90 was 0.4 mg/L (≈ 0.737 µM) in experiment [11] and over 50 mg/L in experiment [12].

On to `COc1ccccc1[C@@H](O)Cn1c(=O)n(C(C)(C)C(N)=O)c(=O)c2c(C)c(-n3nccn3)sc21` [Compound I-196], for which the results for the IC50 in [1] and in experiment [13] were 10 to 40 nM and 1 to 5 nM, respectively. Moreover, the minimum inhibitory concentration (MIC) was over 4.01 mg/L in [2], 2.01 to 4 mg/L (≈ 4.15 to 8.26 µM) in experiment [3] and over 4.01 mg/L in [4]. Besides, the IC90 in experiment [5], in experiment [6], in experiment [7], in experiment [8], in experiment [9] and in [10] was over 50 mg/L throughout. Also, the IC90 in [11] was 2 mg/L (≈ 4.13 µM); in [12], over 50 mg/L.

Consider `COc1ccc(F)cc1[C@@H](O)Cn1c(=O)n([C@H](C)C(=O)N(C)C(C)C)c(=O)c2c(C)c(-n3nccn3)sc21` [Compound I-197], for which the IC50 is 5 to 10 nM in [1] and 0.3 to 1 nM in [13]. Besides, the MIC in experiment [2], in experiment [3] and in [4] was 2.01 to 4 mg/L (≈ 3.69 to 7.34 µM) in each case. Besides, the IC90 in [5] is 0.4 mg/L (≈ 0.734 µM); in experiment [6], 2 mg/L (≈ 3.67 µM); in experiment [7] it was 2 mg/L (≈ 3.67 µM); in experiment [8], 0.08 mg/L (≈ 0.147 µM); in [9], 0.4 mg/L (≈ 0.734 µM); in experiment [10], over 50 mg/L. The IC90 was 0.4 mg/L (≈ 0.734 µM) in experiment [11] and over 50 mg/L in [12].

Regarding `COc1ccc(F)cc1[C@@H](O)Cn1c(=O)n([C@@H](C)C(=O)N(C)C(C)C)c(=O)c2c(C)c(-n3nccn3)sc21` [Compound I-198], the IC50 in [1] and in experiment [13] was 1 to 5 nM throughout. Also, the MIC in experiment [2], in experiment [3] and in experiment [4] was 2.01 to 4 mg/L (≈ 3.69 to 7.34 µM) each time. Moreover, the IC90 was 0.4 mg/L (≈ 0.734 µM) in [5]; 0.4 mg/L (≈ 0.734 µM) in [6]; 0.4 mg/L (≈ 0.734 µM) in experiment [7]; 0.08 mg/L (≈ 0.147 µM) in experiment [8]; 0.4 mg/L (≈ 0.734 µM) in experiment [9]; 10 mg/L (≈ 18.4 µM) in experiment [10]. Moreover, the results for the IC90 in experiment [11] and in experiment [12] were 0.08 mg/L (≈ 0.147 µM) and over 50 mg/L, respectively.

On to `COc1ccccc1[C@H](Cn1c(=O)n([C@H](C)C(=O)N(C)C(C)C)c(=O)c2c(C)c(-n3nccn3)sc21)OCCC#N` [Compound I-205], for which the IC50 in [1] is 5 to 10 nM; in [13] it was 0.3 to 1 nM. For the same compound, the MIC fell in the range of 2.01 to 4 mg/L (≈ 3.47 to 6.9 µM) in experiment [2], 2.01 to 4 mg/L (≈ 3.47 to 6.9 µM) in experiment [3] and 1.01 to 2 mg/L (≈ 1.74 to 3.45 µM) in experiment [4]. The IC90 in experiment [5] was 2 mg/L (≈ 3.45 µM); in [6] it was 10 mg/L (≈ 17.3 µM); in experiment [7], 10 mg/L (≈ 17.3 µM); in experiment [8], 2 mg/L (≈ 3.45 µM); in experiment [9], 10 mg/L (≈ 17.3 µM); in experiment [10] it was over 50 mg/L. In addition, the IC90 was 10 mg/L (≈ 17.3 µM) in [11] and over 50 mg/L in experiment [12].

As for `COc1ccccc1[C@H](Cn1c(=O)n([C@@H](C)C(=O)N(C)C(C)C)c(=O)c2c(C)c(-n3nccn3)sc21)OCCC#N` [Compound I-206], the IC50 in experiment [1] was 1 to 5 nM; in experiment [13], 0.3 to 1 nM. Besides, the MIC in [2] was in the range of 2.01 to 4 mg/L (≈ 3.47 to 6.9 µM); in experiment [3], 2.01 to 4 mg/L (≈ 3.47 to 6.9 µM); in experiment [4], 1.01 to 2 mg/L (≈ 1.74 to 3.45 µM). Besides, the IC90 in [5] was 2 mg/L (≈ 3.45 µM); in experiment [6] it was 2 mg/L (≈ 3.45 µM); in [7] it was 2 mg/L (≈ 3.45 µM); in experiment [8] it was 0.08 mg/L (≈ 0.138 µM); in experiment [9] it was 0.08 mg/L (≈ 0.138 µM); in [10], 10 mg/L (≈ 17.3 µM). Also, the IC90 worked out at 0.08 mg/L (≈ 0.138 µM) in experiment [11] and 10 mg/L (≈ 17.3 µM) in experiment [12].
